This note sets out measurements from publication PMC10708454, “Mentha spp. Essential Oils: A Potential Toxic Fumigant with Inhibition of Acetylcholinesterase Activity on Reticulitermes dabieshanensis” (Plants, 2023).

In this assay the target is T1, acetylcholinesterase (AChE).
T1 construct: gene ace-1; native enzyme in crude whole-worker homogenate (Triton X-100 supernatant), not purified; the docking model is of Coptotermes formosanus, not this enzyme
In words: Ellman assay, crude termite homogenate. Conditions: acetylthiocholine iodide (10 mM stock), DTNB, Tris-HCl pH 7.8, 30 min, inhibitor in alcohol. It is filed as biochemical, Reticulitermes dabieshanensis.

Regarding `CC(C)[C@@H]1CC[C@@H](C)C[C@H]1O` [menthol], the “IC50 ^a (95% CI ^b)” value (1.0-20.0 μL/mL (value outside tested range)) was 76.790 (36.58–166.367) μL/mL. Consider `C=C(C)C1CC=C(C)C(=O)C1` (stereo not drawn) [carvone], for which the “IC50 ^a (95% CI ^b)” value (0.5-6.0 μL/mL) was 1.922 (1.131–3.308) μL/mL. For `C=CC(C)(O)CCC=C(C)C` (stereo not drawn) [linalool], where the note is “0.5-6.0 μL/mL”, the “IC50 ^a (95% CI ^b)” value is 0.136 (0.066–0.218) μL/mL.
